From patent US20240238425A1, “HSD17B13 Inhibitors and/or Degraders” (Pfizer Inc., priority 2022, published 2024) come the findings set out here.

Structures are written as SMILES. Structures can show the parent of a compound that is named as a salt.

The assay concerns HiBiT-HSD17β13 fusion protein (N-terminal HiBiT-tagged HSD17β13 isoform D) in Huh7 HiBiT-HSD17β13 OE cells. As to the kind of experiment: Whole-cell Huh7-HSD17B13 HiBiT assay (degrader potency and maximal efficacy, luminescence readout). The class given is cell-based, human. The note with it: 24 hour incubation, geometric mean, * = geometric mean for all forms tested (parent and salt forms); for DC50: read-out: Huh7_HIBIT-HSD17β13_DC50 GMean DC50; for Huh7_HIBIT-HSD17β13_DC50 GMean Asymptote Maximum: max. concentration 1 μM. In outline:
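Luminescence from lytic HiBiT detection tracked residual HiBiT-HSD17β13 (isoform D, N-terminal tag) in a stable Huh7 overexpressing clone after 24 h compound treatment at 37° C, 11 concentrations up to 1 μM final. Percent effect used DMSO (zero) and parental Huh7 (high) wells; four-parameter fit gave 50% degradation; viability checked by CellTiter-Glo.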
A general note: HiBiT is a short tag that completes a luciferase, so light tracks the accessible tagged protein.

Consider `Cn1c(=O)n(C2CCC(=O)NC2=O)c2ccc(CCN3CCC(F)(Cc4ccc5cn([C@H]6CC[C@H](CNC(=O)c7cc(F)c(O)c(F)c7F)CC6)nc5c4)CC3)cc21` (mixture of isomers) [Example 44, N-{[(1r,4r)-4-(6-{[1-(2-{1-[(3RS)-2,6-dioxopiperidin-3-yl]-3-methyl-2-oxo-2,3-dihydro-1H-benzimidazol-5-yl}ethyl)-4-fluoropiperidin-4-yl]methyl}-2H-indazol-2-yl)cyclohexyl]methyl}-2,3,5-trifluoro-4-hydroxybenzamide, trifluoroacetate salt], for which the DC50 was determined as 1.5 nM and the “Huh7_HIBIT-HSD17β13_DC50 GMean Asymptote Maximum” value stood at 84%.
The matching figures for `Cc1ccc(C(=O)N2CCC3(CC2)C[C@@H](N2CCN(c4ncc(-c5ccc6cn([C@H]7CC[C@H](CNC(=O)c8cc(F)c(O)c(F)c8F)CC7)nc6c5)cn4)CC2)CO3)cc1N1CCC(=O)NC1=O` [Example 68, N-{[(1r,4r)-4-{6-[2-(4-{(3R)-8-[3-(2,4-dioxo-1,3-diazinan-1-yl)-4-methylbenzoyl]-1-oxa-8-azaspiro[4.5]decan-3-yl}piperazin-1-yl)pyrimidin-5-yl]-2H-indazol-2-yl}cyclohexyl]methyl}-2,3,5-trifluoro-4-hydroxybenzamide, trifluoroacetate salt]: 1.7 nM and 79%.
The matching figures for `O=C1CCC(N2Cc3c(OCc4ccc(CN5CCN(c6ccc7cn(C8CCC(CNC(=O)c9cc(F)c(O)c(F)c9)CC8)nc7c6)CC5)cc4)cccc3C2=O)C(=O)N1` (racemic) [Example 6, N-{[(1r,4r)-4-{6-[4-({4-[({2-[(3RS)-2,6-Dioxopiperidin-3-yl]-1-oxo-2,3-dihydro-1H-isoindol-4-yl}oxy)methyl]phenyl}methyl)piperazin-1-yl]-2H-indazol-2-yl}cyclohexyl]methyl}-3,5-difluoro-4-hydroxybenzamide]: 1.4 nM and 76* %.
The matching figures for `Cn1c(=O)n(C2CCC(=O)NC2=O)c2ccc(CCCN3CCN(c4nccc(-c5csc(C67CCC(CNC(=O)c8cc(F)c(O)c(F)c8F)(CC6)CC7)n5)n4)CC3)cc21` (racemic) [Example 5, N-{[4-(4-{2-[4-(3-{1-[(3RS)-2,6-Dioxopiperidin-3-yl]-3-methyl-2-oxo-2,3-dihydro-1H-benzimidazol-5-yl}propyl)piperazin-1-yl]pyrimidin-4-yl}-1,3-thiazol-2-yl)bicyclo[2.2.2]octan-1-yl]methyl}-2,3,5-trifluoro-4-hydroxybenzamide]: 0.31 nM and 82%.
In the case of `Cn1c(=O)n(C2CCC(=O)NC2=O)c2ccc(CCCCNc3ncc(-c4ccc5cn([C@H]6CC[C@H](CNC(=O)c7cc(F)c(O)c(F)c7F)CC6)nc5c4)cn3)cc21` (mixture of isomers) [Example 38, N-{[(1r,4r)-4-(6-{2-[(4-{1-[(3RS)-2,6-dioxopiperidin-3-yl]-3-methyl-2-oxo-2,3-dihydro-1H-benzimidazol-5-yl}butyl)amino]pyrimidin-5-yl}-2H-indazol-2-yl)cyclohexyl]methyl}-2,3,5-trifluoro-4-hydroxybenzamide], the DC50 is 2.6 nM and the “Huh7_HIBIT-HSD17β13_DC50 GMean Asymptote Maximum” value was 79%.
The matching figures for `O=C1CCN(c2cnn3cc(CCCN4CCN(c5ccc6cn([C@H]7CC[C@H](CNC(=O)c8cc(F)c(O)c(F)c8F)CC7)nc6c5)CC4)ccc23)C(=O)N1` [Example 48, N-({(1r,4r)-4-[6-(4-{3-[3-(2,4-dioxo-1,3-diazinan-1-yl)pyrazolo[1,5-a]pyridin-6-yl]propyl}piperazin-1-yl)-2H-indazol-2-yl]cyclohexyl}methyl)-2,3,5-trifluoro-4-hydroxybenzamide, trifluoroacetate salt]: 1.5 nM and 74%.
The matching figures for `Cc1ccc(C(=O)N2CCC3(CC2)CC(N2CCN(c4cnc(-c5ccc6cn([C@H]7CC[C@H](CNC(=O)c8cc(F)c(O)c(F)c8F)CC7)nc6c5)cn4)CC2)C3)cc1N1CCC(=O)NC1=O` [Example 72, N-{[(1r,4r)-4-{6-[5-(4-{7-[3-(2,4-dioxo-1,3-diazinan-1-yl)-4-methylbenzoyl]-7-azaspiro[3.5]nonan-2-yl}piperazin-1-yl)pyrazin-2-yl]-2H-indazol-2-yl}cyclohexyl]methyl}-2,3,5-trifluoro-4-hydroxybenzamide, trifluoroacetate salt]: 1.6 nM and 78%.
The matching figures for `O=C1CCN(c2cnn3cc(CCCN4CCOC5(CCN(c6ccc7cn([C@H]8CC[C@H](CNC(=O)c9cc(F)c(O)c(F)c9F)CC8)nc7c6)CC5)C4)ccc23)C(=O)N1` [Example 28, N-({(1r,4r)-4-[6-(4-{3-[3-(2,4-dioxo-1,3-diazinan-1-yl)pyrazolo[1,5-a]pyridin-6-yl]propyl}-1-oxa-4,9-diazaspiro[5.5]undecan-9-yl)-2H-indazol-2-yl]cyclohexyl}methyl)-2,3,5-trifluoro-4-hydroxybenzamide]: 0.59 nM and 90%.
For `Cc1ccc(C(=O)N2CCC(CN3CCN(c4ccc(-c5ccc6cn([C@H]7CC[C@H](CNC(=O)c8cc(F)c(O)c(F)c8F)CC7)nc6c5)nn4)CC3)CC2)cc1N1CCC(=O)NC1=O` [Example 49, N-{[(1r,4r)-4-(6-{6-[4-({1-[3-(2,4-dioxo-1,3-diazinan-1-yl)-4-methylbenzoyl]piperidin-4-yl}methyl)piperazin-1-yl]pyridazin-3-yl}-2H-indazol-2-yl)cyclohexyl]methyl}-2,3,5-trifluoro-4-hydroxybenzamide, trifluoroacetate salt], the DC50 turned out to be 3.7 nM and the “Huh7_HIBIT-HSD17β13_DC50 GMean Asymptote Maximum” value was determined as 82%.
`O=C1CCN(c2cnn3cc(CN4CCN(c5cnc(-c6ccc7cn([C@H]8CC[C@H](CNC(=O)c9cc(F)c(O)c(F)c9F)CC8)nc7c6)cn5)CC4)ccc23)C(=O)N1` [Example 70, N-{[(1r,4r)-4-{6-[5-(4-{[3-(2,4-dioxo-1,3-diazinan-1-yl)pyrazolo[1,5-a]pyridin-6-yl]methyl}piperazin-1-yl)pyrazin-2-yl]-2H-indazol-2-yl}cyclohexyl]methyl}-2,3,5-trifluoro-4-hydroxybenzamide, trifluoroacetate salt]: the DC50 was 1.1 nM and the “Huh7_HIBIT-HSD17β13_DC50 GMean Asymptote Maximum” value stood at 85%.
The matching figures for `Cl.Cn1c(=O)n(C2CCC(=O)NC2=O)c2ccc(CCN3CCN(c4ccc5cn(C6CCC(CNC(=O)c7cc(F)c(O)c(F)c7F)CC6)nc5c4)CC3)cc21` (racemic) [Example 9, N-{[(1r,4r)-4-{6-[4-(2-{1-[(3RS)-2,6-Dioxopiperidin-3-yl]-3-methyl-2-oxo-2,3-dihydro-1H-benzimidazol-5-yl}ethyl)piperazin-1-yl]-2H-indazol-2-yl}cyclohexyl]methyl}-2,3,5-trifluoro-4-hydroxybenzamide, hydrochloride salt]: 0.26 nM and 83* %.
Regarding `Cc1ccc(C(=O)N2CCC3(CCC(n4cc(-c5ccc6cn([C@H]7CC[C@H](CNC(=O)c8cc(F)c(O)c(F)c8F)CC7)nc6c5)cn4)CC3)CC2)cc1N1CCC(=O)NC1=O` [Example 112, N-({(1r,4r)-4-[6-(1-{3-[3-(2,4-dioxo-1,3-diazinan-1-yl)-4-methylbenzoyl]-3-azaspiro[5.5]undecan-9-yl}-1H-pyrazol-4-yl)-2H-indazol-2-yl]cyclohexyl}methyl)-2,3,5-trifluoro-4-hydroxybenzamide, formate salt], the DC50 was 0.97 nM and the “Huh7_HIBIT-HSD17β13_DC50 GMean Asymptote Maximum” value is on record as 81%.
The matching figures for `Cn1c(=O)n(C2CCC(=O)NC2=O)c2ccc(CCCCCC(=O)N3CCN(c4ccc5cn([C@H]6CC[C@H](CNC(=O)c7cc(F)c(O)c(F)c7F)CC6)nc5c4)CC3)cc21` (mixture of isomers) [Example 39, N-{[(1r,4r)-4-{6-[4-(6-{1-[(3RS)-2,6-dioxopiperidin-3-yl]-3-methyl-2-oxo-2,3-dihydro-1H-benzimidazol-5-yl}hexanoyl)piperazin-1-yl]-2H-indazol-2-yl}cyclohexyl]methyl}-2,3,5-trifluoro-4-hydroxybenzamide, trifluoroacetate salt]: 1.1 nM and 86%.
The matching figures for `Cn1c(=O)n(C2CCC(=O)NC2=O)c2ccc(CCCN3CCN(c4nccc(-c5ncc(C67CCC(CNC(=O)c8cc(F)c(O)c(F)c8F)(CC6)CC7)o5)n4)CC3)cc21` (racemic) [Example 18, N-{[4-(2-{2-[4-(3-{1-[(3RS)-2,6-Dioxopiperidin-3-yl]-3-methyl-2-oxo-2,3-dihydro-1H-benzimidazol-5-yl}propyl)piperazin-1-yl]pyrimidin-4-yl}-1,3-oxazol-5-yl)bicyclo[2.2.2]octan-1-yl]methyl}-2,3,5-trifluoro-4-hydroxybenzamide]: 0.58 nM and 82%.
The matching figures for `Cc1ccc(C(=O)N2CCN(CC3CCN(c4ncc(-c5ccc6cn([C@H]7CC[C@H](CNC(=O)c8cc(F)c(O)c(F)c8F)CC7)nc6c5)cn4)CC3)CC2)cc1N1CCC(=O)NC1=O` [Example 42, N-{[(1r,4r)-4-(6-{2-[4-({4-[3-(2,4-dioxo-1,3-diazinan-1-yl)-4-methylbenzoyl]piperazin-1-yl}methyl)piperidin-1-yl]pyrimidin-5-yl}-2H-indazol-2-yl)cyclohexyl]methyl}-2,3,5-trifluoro-4-hydroxybenzamide, trifluoroacetate salt]: 3.3 nM and 83%.

For orientation: DC50 means the midpoint of the concentration-degradation curve.
